Measured values reported in patent US12145914B2, “Compound having oxadiazole and pharmaceutical composition containing the same” (SK BIOPHARMACEUTICALS CO., LTD., priority 2018, dated 2024).

Each compound was assayed on focal onset seizures induced by electrostimulation of 44 mA, 6 Hz, 3 sec in ICR mouse (assay: 6 Hz method for screening anticonvulsants (6 Hz, 44 mA electrostimulation)). Conditions: male ICR mice, intraperitoneal (ip), electrostimulation 44 mA, 3 sec to the eye, number of non-seizure animals/number of animals used.
Assay type: in vivo
Text: The utility of the compounds according to the present invention as an anticonvulsant agent has been investigated by the 6 Hz method, which has been well established as pharmacological screening methods of convulsant agents for focal onset seizures. The procedure of the 6 Hz method for screening anticonvulsant was as follows:
1) Preparation of Experimental Animals
Male ICR mice are purchased from Orient Bio, Inc. of Korea, and are stored and managed according to laboratory animal management standards of the Institutional Animal Care and Use Committee (IACUC) by putting the same in a wire net cage under an environment in which an ambient temperature of 19 to 25° C., 40 to 60% relative humidity and 12 hour periods of light/dark were auto-controlled, and water was freely taken. After stabilization for a week, mice with a body weight of 18 to 23 g were used in the experiment.
2) Evaluation of the Anticonvulsant Effect of a Compound
5% Tetracaine (Sigma) was added to both eyes to provide a local anesthetic effect at 5 to 10 minutes before the period of electrical stimulation at the animal ICR mouse. The compounds to be tested were dissolved in distilled water in which 30% polyethylene glycol 300+5% dimethylsulfoxide+5% Cremophor was dissolved and administered intraperitoneally (ip) to the animal at a dosage volume of 10 mL/kg. Then, electrostimulation of 44 mA, 6 Hz, and 3 sec was applied to the eye to induce focus-generating seizures. After the electrical stimulation, the presence of seizures due to drug effects was confirmed, and the ratio of animals showing no seizures was expressed as a protection rate (the number of non-seizure animals/the number of animals used in experiments=protection rate). […]

Row | Compound | 6 Hz, 44 mA protection rate
1 | OC(Cc1nnco1)c1cc(OCCCC(F)(F)F)ccc1F (stereo not shown) [Example 23, 1-[2-fluoro-5-(4,4,4-trifluorobutoxy)phenyl]-2-(1,3,4-oxadiazol-2-yl)ethanol] | + (0.2 to 0.6 are scored as ‘+’)
2 | NC(=O)OC(Cc1nnco1)c1cc(OCCCC(F)(F)F)ccc1F (stereo not shown) [Example 24, [1-[2-fluoro-5-(4,4,4-trifluorobutoxy)phenyl]-2-(1,3,4-oxadiazol-2-yl)ethyl] carbamate] | ++ (0.6 to 0.8 are scored as ‘++’)
3 | CCCCCc1ccc(F)c(C(Cc2nnc(C)o2)OC(N)=O)c1 (stereo not shown) [Example 28, [1-(2-fluoro-5-pentyl-phenyl)-2-(5-methyl-1,3,4-oxadiazol-2-yl)ethyl] carbamate] | ++ (0.6 to 0.8 are scored as ‘++’)
4 | Cc1nnc(CC(O)c2cc(CCCCC(F)(F)F)ccc2F)o1 (stereo not shown) [Example 32, 1-[2-fluoro-5-(5,5,5-trifluoropentyl)-phenyl]-2-(5-methyl-1,3,4-oxadiazol-2-yl)ethanol] | + (0.2 to 0.6 are scored as ‘+’)
5 | Cc1nnc(CC(OC(N)=O)c2cc(CCCC(F)(F)F)ccc2F)o1 (stereo not shown) [Example 33, [1-[2-fluoro-5-(4,4,4-trifluorobutyl)phenyl]-2-(5-methyl-1,3,4-oxadiazol-2-yl)ethyl] carbamate] | + (0.2 to 0.6 are scored as ‘+’)
6 | Cc1nnc(CC(OC(N)=O)c2cc(CCCCC(F)(F)F)ccc2F)o1 (stereo not shown) [Example 34, [1-[2-fluoro-5-(5,5,5-trifluoropentyl)phenyl]-2-(5-methyl-1,3,4-oxadiazol-2-yl)ethyl] carbamate] | ++ (0.6 to 0.8 are scored as ‘++’)
7 | Cc1nnc(CC(O)c2cc(C(=O)NCCC(F)(F)F)ccc2F)o1 (stereo not shown) [Example 37, 4-fluoro-3-[1-hydroxy-2-(5-methyl-1,3,4-oxadiazol-2-yl)ethyl]-N-(3,3,3-trifluoropropyl)benzamide] | + (0.2 to 0.6 are scored as ‘+’)
8 | Cc1nnc(CC(O)c2cc(OCCCC(F)(F)F)ccc2Cl)o1 (stereo not shown) [Example 39, 1-[2-chloro-5-(4,4,4-trifluorobutoxy)phenyl]-2-(5-methyl-1,3,4-oxadiazol-2-yl)ethanol] | + (0.2 to 0.6 are scored as ‘+’)
9 | Cc1nnc(CC(O)c2cc(-c3ccc(C(F)(F)F)cc3)ccc2C)o1 (stereo not shown) [Example 42, 2-(5-methyl-1,3,4-oxadiazol-2-yl)-1-[2-methyl-5-[4-(trifluoromethyl)phenyl]phenyl]ethanol] | ++ (0.6 to 0.8 are scored as ‘++’)
10 | COc1ccc(-c2ccc(C(F)(F)F)cc2)cc1C(O)Cc1nnc(C)o1 (stereo not shown) [Example 43, 1-[2-methoxy-5-[4-(trifluoromethyl)phenyl]phenyl]-2-(5-methyl-1,3,4-oxadiazol-2-yl)ethanol] | + (0.2 to 0.6 are scored as ‘+’)
11 | Cc1nnc(CC(O)c2cc(-c3ccc(C(F)(F)F)cc3)ccc2Cl)o1 (stereo not shown) [Example 48, 1-[2-chloro-5-[4-(trifluoromethyl)phenyl]phenyl]-2-(5-methyl-1,3,4-oxadiazol-2-yl)ethanol] | ++ (0.6 to 0.8 are scored as ‘++’)
12 | Cc1nnc(CC(OC(N)=O)c2cc(-c3ccc(C(F)(F)F)cc3)ccc2Cl)o1 (stereo not shown) [Example 50, [1-[2-chloro-5-[4-(trifluoromethyl)phenyl]phenyl]-2-(5-methyl-1,3,4-oxadiazol-2-yl)ethyl] carbamate] | ++ (0.6 to 0.8 are scored as ‘++’)
13 | NC(=O)OC(Cc1nnco1)c1cc(-c2ccc(C(F)(F)F)cc2)ccc1Cl (stereo not shown) [Example 51, [1-[2-chloro-5-[4-(trifluoromethyl)phenyl]phenyl]-2-(1,3,4-oxadiazol-2-yl)ethyl]carbamate] | + (0.2 to 0.6 are scored as ‘+’)
14 | OC(Cc1nnco1)c1cccc(-c2ccc(C(F)(F)F)cc2)c1 (stereo not shown) [Example 52, 2-(1,3,4-oxadiazol-2-yl)-1-[3-[4-(trifluoromethyl)phenyl]phenyl]ethanol] | + (0.2 to 0.6 are scored as ‘+’)
15 | CCc1nnc(CC(O)c2cccc(-c3ccc(C(F)(F)F)cc3)c2)o1 (stereo not shown) [Example 53, 2-(5-ethyl-1,3,4-oxadiazol-2-yl)-1-[3-[4-(trifluoromethyl)phenyl]phenyl]ethanol] | + (0.2 to 0.6 are scored as ‘+’)
16 | CC(=O)OC(Cc1nnc(C)o1)c1cccc(-c2ccc(C(F)(F)F)cc2)c1 (stereo not shown) [Example 55, [2-(5-methyl-1,3,4-oxadiazol-2-yl)-1-[3-[4-(trifluoromethyl)phenyl]phenyl]ethyl]acetate] | + (0.2 to 0.6 are scored as ‘+’)
17 | COC(Cc1nnc(C)o1)c1cccc(-c2ccc(C(F)(F)F)cc2)c1 (stereo not shown) [Example 56, 2-[2-methoxy-2-[3-[4-(trifluoromethyl)phenyl]phenyl]ethyl]-5-methyl-1,3,4-oxadiazole] | ++ (0.6 to 0.8 are scored as ‘++’)
18 | Cc1nnc(CC(O)c2cccc(-c3ccc(OC(F)(F)F)cc3)c2)o1 (stereo not shown) [Example 59, 2-(5-methyl-1,3,4-oxadiazol-2-yl)-1-[3-[4-(trifluoromethoxy)phenyl]phenyl]ethanol] | ++ (0.6 to 0.8 are scored as ‘++’)
19 | Cc1nnc(CC(O)c2cccc(-c3ccc(Cl)cc3)c2)o1 (stereo not shown) [Example 65, 1-[3-(4-chlorophenyl)phenyl]-2-(5-methyl-1,3,4-oxadiazol-2-yl)ethanol] | ++ (0.6 to 0.8 are scored as ‘++’)
20 | Cc1nnc(CC(OC(N)=O)c2cccc(-c3ccc(F)cc3)c2)o1 (stereo not shown) [Example 72, [1-[3-(4-fluorophenyl)phenyl]-2-(5-methyl-1,3,4-oxadiazol-2-yl)ethyl] carbamate] | + (0.2 to 0.6 are scored as ‘+’)
21 | Cc1nnc(CC(OC(N)=O)c2cccc(-c3ccc(Cl)cc3)c2)o1 (stereo not shown) [Example 75, [1-[3-(4-chlorophenyl)phenyl]-2-(5-methyl-1,3,4-oxadiazole-2-yl)ethyl] carbamate] | + (0.2 to 0.6 are scored as ‘+’)
22 | Cc1nnc(CC(OC(N)=O)c2cccc(-c3ccc(OC(F)(F)F)cc3)c2)o1 (stereo not shown) [Example 78, [1-[3-[4-(trifluoromethoxy)phenyl]phenyl]-2-(5-methyl-1,3,4-oxadiazol-2-yl)ethyl] carbamate] | ++ (0.6 to 0.8 are scored as ‘++’)
23 | Nc1nnc(-c2cccc(Cl)c2Cl)c(N)n1 [Lamotrigine, reference compound] | − (the protection rates 0 to 0.2 are scored as ‘−’)
24 | CC[C@@H](C(N)=O)N1CCCC1=O [Levitiracetam, (S)-α-ethyl-2-oxo-1-pyrrolidine acetamide, reference compound] | − (the protection rates 0 to 0.2 are scored as ‘−’)
25 | CC1(C)O[C@@H]2[C@@H](CO[C@@]3(COS(N)(=O)=O)OC(C)(C)O[C@@H]23)O1 [Topiramate, reference compound] | − (the protection rates 0 to 0.2 are scored as ‘−’)
